Source: US12285498B2, “Pharmaceutical composition with nanoparticle-based drug delivery combined with non-invasive radiographic monitoring model” (NANOMEDTRIX, LLC, priority 2023, dated 2025)
Read-outs that look alike come from different tables or passages of the source.

How the values were obtained:
in vivo [1] = experiment: in vivo
Text: Blood, urine, and stools were collected to evaluate renal and gastro-intestinal clearance of nanomaterials. Sequential and simultaneous administration of one material and before the start of another to allow full clearance.
Both strains were obtained from Inotiv (Indianapolis, IN, USA). F344 rats were instilled with rat AY27 bladder cancer cells and athymic nude rats were instilled with human male bladder cancer strains: T24 and UMUC-3. […] In these rats, blood/urine were collected, but spared from PK/PD studies to avoid confounding results. In this cohort, rats (n=3) were instilled with tumors and treated with sequential intravesical and oral drug-MSN 3-drugs load and body fluids (blood/urine) collection at the same prescribed time points. An example: four rounds of treatment were administered fluid collected n=3 samples at each time point.

in vivo [2] = experiment: in vivo; remark: listed apart in the source
Text: The following discusses oral administration and detection of the drug delivered orally. There is a need for oral drug delivery, i.e., it facilitates self-medication, storage, and reduced burden on the clinician, allowing for remote monitoring.

[3] = PK, intravenous administration of drug alone (current study); type: in vivo, rat; settings: for Cmax: 3 mg/kg DOC, 12 mg/kg GEM, 6 mg/kg MMC; for AUC: read-out: AUC (Plasma Curves)
Procedure: Adult female rats are 250-300 g in body weight, or 10-15 times larger than adult C57-BI6 mice. The volume of an aqueous solution given by oral gavage procedure can be up to 5 mL/kg, thus for a 300 g rat, 1.5 mL volume is achievable (Turner, J Am Assoc Lab Anim Sci. 51(1): 25-30.). This permits a mass of 150 mg MSN, or the equivalent dose of free drug. The recommended volume of a tail vein injection is also 5 mL/kg, thus 150 mg MSN or equivalent drug can be administered by i.v. as well (https://research.unc.edu/files/2020/12/rat-handling-and-techniques.pdf).
We compared the one or 2 drugs to experiment carried out intravenous/systemic and/or intravesicular drug alone.

[4] = intravenous, cited from earlier work
[5] = known value; cited from earlier work
[6] = rat, in vivo
[7] = intravenous, cited from earlier work; remark: listed apart in the source
[8] = oral, 50 mg/kg; cited from earlier work
[9] = intravenous, cited from earlier work; remark: listed apart in the source
[10] = Comparison of AUC for drug-MSN versus drug administered alone (FIG. 7); settings: rat, in vivo
[11] = female, rat, in vivo, Cmax in stools
[12] = female, rat, in vivo, initial concentration (Cmax) in urine
[13] = female, rat, in vivo, po, 3 mg/kg
[14] = female, rat, in vivo, po, Cmax in stool
[15] = female, rat, in vivo, po, Cmax in urine
[16] = female, rat, plasma, read-out: Cmax
[17] = female, rat, in vivo, po, 12 mg/kg

Q: Which results are given for `CC(=O)O[C@@]12CO[C@@H]1C[C@H](O)[C@@]1(C)C(=O)[C@H](O)C3=C(C)[C@@H](OC(=O)[C@H](O)[C@@H](NC(=O)OC(C)(C)C)c4ccccc4)C[C@@](O)([C@@H](OC(=O)c4ccccc4)[C@H]21)C3(C)C` [Docetaxel]?
A: Cmax (in vivo [1]; [11]): 9.44 ng/mL; Cmax (in vivo [1]; [12]): 16600 ng/mL; detection in plasma (in vivo [1]; rat, in vivo): below the detection threshold; time of Cmax in stools (in vivo [1]; rat, in vivo): 24 h; AUC (in vivo [2]; [13]): 13.3 ng·h/mL; Clearance (in vivo [2]; [13]): 45.11 L/h; tmax (in vivo [2]; [13]): 60 min; Cmax (in vivo [2]; [14]): 352 ng/mL; Cmax (in vivo [2]; [15]): 413 ng/mL; time of Cmax in stool (in vivo [2]; rat, in vivo, po): 6 h; Cmax [3, 16]: 116 ng/mL; Clearance ([3]; female, rat, plasma, 3 mg/kg): 624 mL/min; AUC ([3]; female, rat, plasma, 3 mg/kg): 16 ng·h/mL; tmax ([3]; female, rat, plasma, 3 mg/kg, read-out: tmax): 15 min; AUC (Plasma Curves) ([4]; 2 mg/kg): 0.277 mg·h/L; Cmax ([4]; 2 mg/kg): 68 ± 10 ng/mL; AUC (Plasma Curves) ([4]; 5 mg/kg): 16367.39 mg·h/L; Cmax ([4]; 5 mg/kg): 7000 ng/mL; AUC (Plasma Curves) ([4]; 8 mg/kg): 2.2 ± 0.3 mg·h/L; Cmax ([4]; 8 mg/kg): 950 ng/mL; oral bioavailability [5]: 10%

Q: Which results are given for `Nc1ccn([C@@H]2O[C@H](CO)[C@@H](O)C2(F)F)c(=O)n1` [Gemcitabine]?
A: plasma Cmax as % of Cmax for urine (in vivo [1]; female, rat, in vivo): ~1%; AUC (in vivo [1]; female, rat, in vivo, 12 mg/kg): 280 ng·h/mL; Clearance (in vivo [1]; female, rat, in vivo, 12 mg/kg): 143 mL/min; tmax (in vivo [1]; female, rat, in vivo, 12 mg/kg): 15 min; Cmax (in vivo [1]; [11]): 2.23 ng/mL; Cmax (in vivo [1]; [12]): 55600 ng/mL; time of Cmax in plasma (in vivo [1]; rat, in vivo): ≤ 15 min; time of Cmax in stools (in vivo [1]; rat, in vivo): 24 h; AUC (in vivo [2]; [17]): 1140 ng·h/mL; Clearance (in vivo [2]; [17]): 2.109 L/h; tmax (in vivo [2]; [17]): 30 min; Cmax (in vivo [2]; [14]): 26.1 ng/mL; Cmax (in vivo [2]; [15]): 4740 ng/mL; time of Cmax in stool (in vivo [2]; rat, in vivo, po): 6 h; Cmax [3, 16]: 1790 ng/mL; Clearance ([3]; female, rat, plasma, 12 mg/kg): 17.4 mL/min; AUC ([3]; female, rat, plasma, 12 mg/kg): 2300 ng·h/mL; tmax ([3]; female, rat, plasma, 12 mg/kg, read-out: tmax): 15 min; AUC, drug alone compared with drug-loaded MSN [6]: higher for drug alone; AUC (Plasma Curves) ([7]; 15 mg/kg): 22.69 ± 4.14 mg·h/L; Clearance ([7]; 15 mg/kg): 393.29 L/h/m^2; AUC (Plasma Curves) ([7]; 20 mg/kg): 133 ± 20 mg·h/L; Clearance ([7]; 20 mg/kg): 89.46 L/h/m^2; AUC (Plasma Curves) ([7]; 50 mg/kg): 5031.61 ± 927.4 mg·h/L; Clearance ([7]; 50 mg/kg): 29.56 L/h/m^2; tmax ([7]; 15-20 mg/kg): 4.98 min; AUC (Plasma Curves) [8]: 16132.95 ± 5128.0 µg·h/mL; Cmax [8]: 1181.17 ± 47.1 ng/mL; tmax [8]: 1.5 ± 0.9 h; oral bioavailability [5]: 10%

Q: Which Cmax (in vivo [1]; drug alone, intravesical, 3 mg/kg DOC, 12 mg/kg GEM, 6 mg/kg MMC, plasma) does the source give for `CO[C@@]12[C@H](COC(N)=O)C3=C(C(=O)C(C)=C(N)C3=O)N1C[C@@H]1N[C@@H]12` [Mitomycin C, Mitomycin c] here?
A: 32.19 ng/mL

Q: And the tmax (in vivo [1]; drug alone, intravesical, plasma)?
A: 15 min

Q: And the Cmax in stools (in vivo [1]; intravesical administration, stools)?
A: 94.22 ng/mL

Q: What about the “initial concentration (Cmax) in urine” value (in vivo [1]; intravesical administration, urine, 15 minutes following administration) of the same compound?
A: 29498.07 ng/mL

Q: What about the tmax (in vivo [2]; drug alone, oral, plasma) of the same compound?
A: 30 min

Q: What about the Cmax in stool (in vivo [2]; oral administration, stool) of the same compound?
A: 157.09 ng/mL

Q: What about the Cmax in urine (in vivo [2]; oral administration, urine) of the same compound?
A: 16135.89 ng/mL

Q: And the tmax [3]?
A: 15 min

Q: What about the Cmax ([3]; plasma) of the same compound?
A: 39.5 ng/mL

Q: What about the Cmax ([9]; 4 mg/kg) of the same compound?
A: 800 ng/mL

Q: And the tmax ([9]; 4 mg/kg)?
A: 15 min

Q: And the Cmax ([9]; 5 mg/kg)?
A: 12800 ± 400 ng/mL

Q: What about the tmax ([9]; 5 mg/kg) of the same compound?
A: 4.98 min

Q: What about the “AUC, drug alone compared with drug-loaded MSN” value [10] of the same compound?
A: higher for drug alone
